Each block holds one compound with its values, some of them ahead of it.
How the values were obtained:
Format in all cases: functional, cell-based
[1] = target: T1, Solute carrier family 15 member 1 (Rattus norvegicus) (UniProt P51574); assay: TP_TRANSPORTER: inhibition of Gly-Sar uptake (Gly-Sar: 20 uM, Tolbutamide: 1000uM) in PEPT1-expressing LLC-PK1 cells
T1 sequence (whole entry): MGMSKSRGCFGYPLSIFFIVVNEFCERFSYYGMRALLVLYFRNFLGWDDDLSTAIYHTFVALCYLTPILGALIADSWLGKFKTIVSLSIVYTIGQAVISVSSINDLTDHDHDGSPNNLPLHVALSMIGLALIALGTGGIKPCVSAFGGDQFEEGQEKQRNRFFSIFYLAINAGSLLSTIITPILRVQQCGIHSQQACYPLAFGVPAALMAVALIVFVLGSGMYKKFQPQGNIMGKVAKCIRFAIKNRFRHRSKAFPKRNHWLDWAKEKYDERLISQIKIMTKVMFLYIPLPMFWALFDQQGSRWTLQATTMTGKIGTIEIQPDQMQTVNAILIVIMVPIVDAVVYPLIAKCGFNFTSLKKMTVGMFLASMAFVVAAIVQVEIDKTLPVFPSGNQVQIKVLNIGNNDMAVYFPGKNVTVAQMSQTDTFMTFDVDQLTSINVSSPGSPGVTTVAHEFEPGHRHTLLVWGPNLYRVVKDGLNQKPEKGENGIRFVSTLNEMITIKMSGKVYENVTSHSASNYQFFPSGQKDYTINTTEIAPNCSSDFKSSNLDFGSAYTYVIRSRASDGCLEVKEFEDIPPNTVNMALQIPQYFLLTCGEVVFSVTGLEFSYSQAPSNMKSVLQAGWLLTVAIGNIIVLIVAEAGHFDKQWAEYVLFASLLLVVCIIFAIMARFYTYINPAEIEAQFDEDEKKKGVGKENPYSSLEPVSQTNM

[2] = target: T2, Solute carrier family 15 member 2 (Rattus norvegicus) (UniProt Q63424); assay: TP_TRANSPORTER: inhibition of Gly-Sar uptake (Gly-Sar: 20 uM, Tolbutamide: 1000uM) in PEPT2-expressing LLC-PK1 cells
T2 sequence (whole entry): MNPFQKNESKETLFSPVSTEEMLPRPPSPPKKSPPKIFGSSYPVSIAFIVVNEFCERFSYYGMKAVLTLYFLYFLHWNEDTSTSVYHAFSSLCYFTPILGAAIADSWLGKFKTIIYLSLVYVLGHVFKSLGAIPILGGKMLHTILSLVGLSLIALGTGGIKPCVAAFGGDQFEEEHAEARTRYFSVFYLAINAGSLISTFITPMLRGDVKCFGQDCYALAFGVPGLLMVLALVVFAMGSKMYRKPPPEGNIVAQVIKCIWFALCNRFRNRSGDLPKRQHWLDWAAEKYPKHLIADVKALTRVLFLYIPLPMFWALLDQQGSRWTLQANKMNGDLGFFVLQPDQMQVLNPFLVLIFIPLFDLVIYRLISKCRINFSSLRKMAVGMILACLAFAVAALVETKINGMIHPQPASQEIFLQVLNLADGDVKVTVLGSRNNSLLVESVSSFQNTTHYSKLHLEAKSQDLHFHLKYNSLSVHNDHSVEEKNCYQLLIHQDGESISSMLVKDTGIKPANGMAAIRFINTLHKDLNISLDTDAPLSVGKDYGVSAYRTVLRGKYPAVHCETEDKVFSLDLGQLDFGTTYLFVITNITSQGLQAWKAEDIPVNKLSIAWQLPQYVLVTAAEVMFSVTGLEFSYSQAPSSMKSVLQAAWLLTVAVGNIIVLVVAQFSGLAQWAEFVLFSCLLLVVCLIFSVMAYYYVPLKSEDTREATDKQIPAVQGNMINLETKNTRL

[3] = target: T1, Solute carrier family 15 member 1 (Rattus norvegicus); assay: TP_TRANSPORTER: inhibition of Gly-Sar uptake (Gly-Sar: 20 uM, Chlorpropamide: 1000uM) in PEPT1-expressing LLC-PK1 cells
[4] = target: T2, Solute carrier family 15 member 2 (Rattus norvegicus); assay: TP_TRANSPORTER: inhibition of Gly-Sar uptake (Gly-Sar: 20 uM, Chlorpropamide: 1000uM) in PEPT2-expressing LLC-PK1 cells
[5] = target: T1, Solute carrier family 15 member 1 (Rattus norvegicus); assay: TP_TRANSPORTER: uptake in PEPT1-expressing LLC-PK1 cells
[6] = target: T3, Solute carrier family 15 member 1 (Rattus norvegicus, UniProt P51574); assay: TP_TRANSPORTER: inhibition of Gly-Sar uptake (Gly-Sar: 20 uM) in PEPT1-expressing LLC-PK1 cells
T3 sequence (P51574 whole entry): T1 sequence (whole entry)

[7] = target: T2, Solute carrier family 15 member 2 (Rattus norvegicus); assay: TP_TRANSPORTER: uptake in PEPT2-expressing LLC-PK1 cells
[8] = target: T4, Solute carrier family 15 member 2 (Rattus norvegicus, UniProt Q63424); assay: TP_TRANSPORTER: inhibition of Gly-Sar uptake (Gly-Sar: 20 uM) in PEPT2-expressing LLC-PK1 cells
T4 sequence (Q63424 whole entry): T2 sequence (whole entry)

Activity [1]: inhibitor [+]
Activity [2]: inhibitor [+]
SMILES: CCCCNC(=O)NS(=O)(=O)c1ccc(C)cc1

Activity [3]: inhibitor [+]
Activity [4]: inhibitor [+]
SMILES: CCCNC(=O)NS(=O)(=O)c1ccc(Cl)cc1

Activity [5]: is not a substrate [-]
IC50 [6]: 160 µM
Activity [7]: is not a substrate [-]
IC50 [8]: 70 µM
SMILES: CC(C)[C@H]1CC[C@H](C(=O)N[C@H](Cc2ccccc2)C(=O)O)CC1 [NATEGLINIDE]

— ChEMBL document CHEMBL2074114, “Inhibitory effect of novel oral hypoglycemic agent nateglinide (AY4166) on peptide transporters PEPT1 and PEPT2” (Eur J Pharmacol, 2000)
